From patent US20240041840A1 (Areteia Therapeutics, Inc., priority 2020, published 2024)
Like-named read-outs stand apart in the source and are kept apart here.

Key:
[1] = tested on: subjects with eosinophilic asthma; settings: for ACQ-6 Change from Baseline LSM / ACQ-6 Difference vs Placebo LSM (95% CI): 12 weeks
From the text: The ACQ cutoff for well-controlled asthma is a score of about 0.75, and the ACQ cutoff for uncontrolled asthma is a score of about ≥1.5. An ACQ score change of ≥0.5 is considered clinically significant.
Evaluation of Efficacy: Blood eosinophil count, changes in pulmonary function (FEV1), Asthma Control Questionnaire (ACQ-6), Asthma Control Questionnaire (ACQ-7), Asthma Quality of Life Questionnaire (AQLQ), exhaled nitric oxide, pharyngeal and nasal eosinophil peroxidase were collected periodically during the study.
Juniper Asthma Control Six Point Questionnaire (ACQ-6)—Baseline and visits 5, 8, 11 and 14. The ACQ-6 will be used to assess improvements in asthma symptom control (6). The ACQ-6 was originally validated in participants with asthma aged 17 to 90 years (2, 3, and is one of several asthma control measures recommended by GINA Guidelines). The ACQ-6 consists of 6 items: 5 items on symptom assessment, 1 item on rescue bronchodilator use. The ACQ-6 has been fully validated, including a minimal important difference (MID) or smallest change that can be considered clinically important (0.5). The ACQ-6 will be self-administered at the clinic (questions 1-6 only) and it only takes a few minutes to complete. Participants are asked how they have been feeling during the past week and to score each item on a […] response scale, where 0 indicates ‘totally controlled’ and 6 indicates ‘severely uncontrolled.’ The total score is calculated as the mean of all questions. The questionnaire should always be completed before any other assessments.

[2] = tested on: blood eosinophils; settings: 150 mg twice daily, after 6 months, open label, 16 subjects with eosinophilic chronic rhinosinusitis with nasal polyps
From the text: The co-primary endpoints were change in AEC and change in total polyp score (TPS) from baseline to Month 6, with additional clinical and histologic endpoints assessed.

CCCN[C@@H]1CCc2nc(N)sc2C1 [dexpramipexole, (6R)-2-amino-4,5,6,7-tetrahydro-6-(propylamino) benzothiazole]
ACQ-6 Change from Baseline LSM ([1]; 75 mg/day): −0.419
ACQ-6 Difference vs Placebo LSM (95% CI) ([1]; 75 mg/day): −0.0276 (−0.560, 0.505)
ACQ-6 Change from Baseline LSM ([1]; 150 mg/day): −0.437
ACQ-6 Difference vs Placebo LSM (95% CI) ([1]; 150 mg/day): −0.0457 (−0.575, 0.484)
ACQ-6 Change from Baseline LSM ([1]; 300 mg/day): −0.655
ACQ-6 Difference vs Placebo LSM (95% CI) ([1]; 300 mg/day): −0.264 (−0.772, 0.245)
ACQ-6 scores ([1]; across several dose groups, 12 weeks (Table 13)): improved
Lowering of the AEC [2]: 94%
